Test: xn = mol fraction of the nth substance listed
Details: 101 kPa, Liquid; for mass density: Vibrating tube method; for electrical conductivity: Conductivity Meter Jenco 3107; for viscosity: Cone and plate viscometry

CC1COC(=O)O1 (configuration not stated) [4-methyl-1,3-dioxolan-2-one] + CCCC[n+]1ccn(C)c1.O=S(=O)([N-]S(=O)(=O)C(F)(F)F)C(F)(F)F
Details	electrical conductivity [S/m]	mass density [kg/m3]	viscosity [mPa·s]
308.15 K, x2 = 0.7989	–	1410.26	–
308.15 K, x2 = 0.898	–	1418.04	–
313.15 K, x2 = 0	–	–	2.05
313.15 K, x2 = 0.0146	–	1194.33	–
313.15 K, x2 = 0.0296	–	1205.22	–
313.15 K, x2 = 0.0453	–	1215.97	–
313.15 K, x2 = 0.0502	1.14	–	–
313.15 K, x2 = 0.0616	–	1226.46	–
313.15 K, x2 = 0.0732	–	1233.52	–
313.15 K, x2 = 0.0997	–	1248.42	–
313.15 K, x2 = 0.1	–	–	3.21
313.15 K, x2 = 0.1004	1.44	–	–
313.15 K, x2 = 0.2001	1.66	–	–
313.15 K, x2 = 0.2002	–	–	4.59
313.15 K, x2 = 0.2004	–	1293.64	–
313.15 K, x2 = 0.3002	1.52	–	–
313.15 K, x2 = 0.3007	–	–	6.34
313.15 K, x2 = 0.3081	–	1328.25	–
313.15 K, x2 = 0.3998	–	–	8.29
313.15 K, x2 = 0.4004	–	1350.46	–
313.15 K, x2 = 0.4005	1.4	–	–
313.15 K, x2 = 0.5004	–	–	10.77
313.15 K, x2 = 0.5007	1.25	–	–
313.15 K, x2 = 0.5021	–	1369.47	–
313.15 K, x2 = 0.5839	–	1381.78	–
313.15 K, x2 = 0.6002	–	–	13.57
313.15 K, x2 = 0.6003	1.11	–	–
313.15 K, x2 = 0.6902	–	1394.71	–
313.15 K, x2 = 0.6979	–	–	16.55
313.15 K, x2 = 0.6989	0.971	–	–
313.15 K, x2 = 0.7989	–	1405.28	–
313.15 K, x2 = 0.8001	0.85	–	–
313.15 K, x2 = 0.8015	–	–	20.47
313.15 K, x2 = 0.8959	0.73	–	23.63
313.15 K, x2 = 0.898	–	1413.08	–
318.15 K, x2 = 0	–	–	1.9
318.15 K, x2 = 0.0146	–	1188.81	–
318.15 K, x2 = 0.0296	–	1199.72	–
318.15 K, x2 = 0.0453	–	1210.48	–
318.15 K, x2 = 0.0502	1.23	–	–
318.15 K, x2 = 0.0616	–	1220.94	–
318.15 K, x2 = 0.0732	–	1228.04	–
318.15 K, x2 = 0.0997	–	1243.05	–
318.15 K, x2 = 0.1	–	–	2.89
318.15 K, x2 = 0.1004	1.59	–	–
318.15 K, x2 = 0.2001	1.81	–	–
318.15 K, x2 = 0.2002	–	–	4.17
318.15 K, x2 = 0.2004	–	1288.34	–
318.15 K, x2 = 0.3002	1.68	–	–
318.15 K, x2 = 0.3007	–	–	5.68
318.15 K, x2 = 0.3081	–	1323.02	–
318.15 K, x2 = 0.3998	–	–	7.31
318.15 K, x2 = 0.4004	–	1345.37	–
318.15 K, x2 = 0.4005	1.57	–	–
318.15 K, x2 = 0.5004	–	–	9.37
318.15 K, x2 = 0.5007	1.41	–	–
318.15 K, x2 = 0.5021	–	1364.43	–
318.15 K, x2 = 0.5839	–	1376.72	–
318.15 K, x2 = 0.6002	–	–	11.75
318.15 K, x2 = 0.6003	1.26	–	–
318.15 K, x2 = 0.6979	–	–	14.29
318.15 K, x2 = 0.6989	1.11	–	–
318.15 K, x2 = 0.8001	0.961	–	–
318.15 K, x2 = 0.8015	–	–	17.5
318.15 K, x2 = 0.8959	0.828	–	20.04
